We go through one compound from patent US5773226A, “Recombinant calf intestinal alkaline phosphatase” (La Jolla Cancer Research Foundation, priority 1995, dated 1998).

Assay [1] deals with T1, recombinant calf intestinal alkaline phosphatase (b.IAP), expressed in CHO cells, SEQ ID NO: 10 (Bos taurus, UniProt P19111).
T1 construct: codes for a peptide of 533 amino acids in length; made in house; host or cells: Chinese hamster ovary (CHO) cells, ATCC No. CCL61
As to the kind of experiment: Kinetic parameters (Km, Ki for L-Phe) of recombinant calf IAP. The assay is classed as biochemical, calf (bovine). Particulars: recombinant enzyme; read-out: K1 for L-Phe. Here is the method:
(§1) Values for Km and Kl for L-Phe were determined for the recombinant enzyme as well as for purified protein from calf intestine as described in Hummer and Millan, supra, and Wilkinson, Biochem. J. 8:324-332 (1961), incorporated herein by reference.

Assay [2] addresses purified calf intestinal alkaline phosphatase (b.IAP) from natural sources (calf intestine). As to the kind of experiment: Kinetic parameters (Km, Ki for L-Phe) of purified natural calf IAP. Particulars: purified natural enzyme; read-out: K1 for L-Phe. It is filed as biochemical, calf (bovine). As to the method:
as §1

T1 sequence (P19111 20-506 limits assumed): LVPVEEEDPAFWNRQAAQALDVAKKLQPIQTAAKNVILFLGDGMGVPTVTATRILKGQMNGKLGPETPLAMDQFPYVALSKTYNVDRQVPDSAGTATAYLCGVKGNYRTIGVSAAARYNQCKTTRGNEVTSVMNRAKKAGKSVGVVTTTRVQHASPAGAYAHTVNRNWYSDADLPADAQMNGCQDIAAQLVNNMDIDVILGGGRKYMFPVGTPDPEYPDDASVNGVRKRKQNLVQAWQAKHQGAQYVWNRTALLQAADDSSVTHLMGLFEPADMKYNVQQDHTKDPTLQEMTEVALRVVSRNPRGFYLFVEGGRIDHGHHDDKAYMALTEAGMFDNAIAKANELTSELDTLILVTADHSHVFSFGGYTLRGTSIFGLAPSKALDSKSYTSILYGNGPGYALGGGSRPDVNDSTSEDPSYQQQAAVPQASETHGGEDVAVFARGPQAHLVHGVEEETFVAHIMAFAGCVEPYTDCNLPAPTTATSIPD

Consider `N[C@@H](Cc1ccccc1)C(=O)O` [L-Phe], for which the Ki worked out at 15.2 ± 1.8 mM in assay [1] and 11.2 ± 1 mM in assay [2].
